Values after ≈ are worked out from the molar mass of the structure shown. Where two headings read alike, the source gives them in different places.
Assays:
Type in all cases: cell-based, P. aeruginosa
[1] = tested on: PA-003, blaVIM; assay: Time–kill assay; conditions: 24 h
Description: (§1) Aliquots (50 μL) were taken from the incubation mixture at regular time intervals (t = 0, 3, 6, and 24 h), serially diluted in 0.85% NaCl solution, and plated on BAP. Bacterial colonies were counted, and the data are presented as the means of at least three independent experiments.

[2] = tested on: PA-002, blaIMP; assay: Time–kill assay; conditions: 24 h
Description: as §1

[3] = tested on: PA-014, blaGES; assay: Time–kill assay; conditions: 24 h
Description: as §1

[4] = tested on: PA-017, blaNDM; assay: Time–kill assay; conditions: 24 h
Description: as §1

[5] = tested on: PA-027, blaIMP; assay: MIC / checkerboard with ATM; parameters: key to Susceptibility category: S: susceptible; I: intermediate; R: resistant; conditions: for MIC: Pseudomonas aeruginosa
[6] = tested on: PA-025, blaNDM; assay: MIC / checkerboard with ATM; parameters: key to Susceptibility category: S: susceptible; I: intermediate; R: resistant; conditions: PA-025
[7] = tested on: PA-039, blaNDM; assay: MIC / checkerboard with ATM; parameters: key to Susceptibility category: S: susceptible; I: intermediate; R: resistant; conditions: PA-039
[8] = tested on: PA-042, blaIMP/NDM; assay: MIC / checkerboard with ATM; parameters: key to Susceptibility category: S: susceptible; I: intermediate; R: resistant; conditions: for MIC: Pseudomonas aeruginosa
[9] = tested on: PA-044, blaNDM; assay: MIC / checkerboard with ATM; parameters: key to Susceptibility category: S: susceptible; I: intermediate; R: resistant
[10] = tested on: All CPPA (n = 26); assay: MIC distribution over clinical isolates; conditions: Pseudomonas aeruginosa
[11] = tested on: PA-035, blaGES; assay: MIC / checkerboard with ATM; parameters: key to Susceptibility category: S: susceptible; I: intermediate; R: resistant; conditions: for MIC: Pseudomonas aeruginosa
[12] = tested on: PA-030, blaIMP; assay: MIC / checkerboard with ATM; parameters: key to Susceptibility category: S: susceptible; I: intermediate; R: resistant; conditions: PA-030

MIC ([5]; PA-027, Table S2, read-out: MIC value): 32 µg/mL
MIC ([5]; read-out: MIC of ATM, PA-027, ATM alone (5 at 0 mg/L)): 32 µg/mL
MIC ([8]; PA-042, Table S2, read-out: MIC value): 2 µg/mL
MIC ([8]; read-out: MIC of ATM, PA-042, ATM alone (5 at 0 mg/L)): 2 µg/mL
MIC ([9]; Pseudomonas aeruginosa, read-out: MIC of ATM, PA-044, ATM alone (5 at 0 mg/L)): 16 µg/mL
MIC50 ([10]; read-out: MIC50 of ATM, 5 at 0 mg/L): 16 µg/mL (≈ 36.7 µM)
MIC90 ([10]; read-out: MIC90 of ATM, 5 at 0 mg/L): 32 µg/mL (≈ 73.5 µM)
MIC ([11]; PA-035, Table S2, read-out: MIC value): 8 µg/mL
MIC ([11]; read-out: MIC of ATM, PA-035, ATM alone (5 at 0 mg/L)): 8 µg/mL
MIC ([12]; Pseudomonas aeruginosa, Table S2, read-out: MIC value): 32 µg/mL
SMILES: C[C@H]1[C@H](NC(=O)/C(=N\OC(C)(C)C(=O)O)c2csc(N)n2)C(=O)N1S(=O)(=O)O [ATM, aztreonam]
Log CFU/mL, ATM only ([1]; ATM 1/2 MIC): 9.88 Log CFU/mL
Log CFU/mL, ATM only ([1]; ATM 1/4 MIC): 10.18 Log CFU/mL
Log CFU/mL, ATM only ([1]; ATM 1 MIC): 9.13 Log CFU/mL
Log CFU/mL, ATM only ([1]; ATM 2 MIC): 6.40 Log CFU/mL
Log CFU/mL, ATM only ([2]; ATM 1/2 MIC): 9.02 Log CFU/mL
Log CFU/mL, ATM only ([2]; ATM 1/4 MIC): 9.48 Log CFU/mL
Log CFU/mL, ATM only ([2]; ATM 1 MIC): 8.15 Log CFU/mL
Log CFU/mL, ATM only ([2]; ATM 2 MIC): 5.50 Log CFU/mL
Log CFU/mL, ATM only ([3]; ATM 1/2 MIC): 8.83 Log CFU/mL
Log CFU/mL, ATM only ([3]; ATM 1/4 MIC): 9.33 Log CFU/mL
Log CFU/mL, ATM only ([3]; ATM 1 MIC): 7.68 Log CFU/mL
Log CFU/mL, ATM only ([3]; ATM 2 MIC): 2.45 Log CFU/mL
Log CFU/mL, ATM only ([4]; ATM 1/2 MIC): 9.97 Log CFU/mL
Log CFU/mL, ATM only ([4]; ATM 1/4 MIC): 10.74 Log CFU/mL
Log CFU/mL, ATM only ([4]; ATM 1 MIC): 6.52 Log CFU/mL
Log CFU/mL, ATM only ([4]; ATM 2 MIC): 0.12 Log CFU/mL
Susceptibility to ATM ([5]; PA-027, ATM alone): R (R (resistant, MIC ≥ 32 mg/L))
Susceptibility category ([5]; PA-027, Table S2): R
Susceptibility to ATM ([6]; ATM alone): I (I (intermediate, MIC = 16 mg/L))
Susceptibility category ([6]; Table S2): I
Susceptibility to ATM ([7]; ATM alone): I (I (intermediate, MIC = 16 mg/L))
Susceptibility category ([7]; Table S2): R
Susceptibility to ATM ([8]; PA-042, ATM alone): S (S (sensitive, MIC ≤ 8 mg/L))
Susceptibility category ([8]; PA-042, Table S2): S
Susceptibility to ATM ([9]; PA-044, ATM alone): I (I (intermediate, MIC = 16 mg/L))
Susceptibility category ([9]; PA-044, Table S2): I
Susceptibility to ATM ([11]; PA-035, ATM alone): S (S (sensitive, MIC ≤ 8 mg/L))
Susceptibility category ([11]; PA-035, Table S2): S
Susceptibility to ATM ([12]; ATM alone): R (R (resistant, MIC ≥ 32 mg/L))
Susceptibility category ([12]; Table S2): R
